In article PMC5552880, “The Bitter Taste Receptor TAS2R16 Achieves High Specificity and Accommodates Diverse Glycoside Ligands by using a Two-faced Binding Pocket” (Scientific Reports, 2017):
Residue numbers refer to the chain shown, from its start. Values joined by “and” are separate entries in the source; they are usually repeats but may differ in a detail not shown here. Identical values can stand only once. Like-named read-outs stand apart in the source and are kept apart here.

Columns and labels:
[1] = target: T1, wild-type TAS2R16 (Homo sapiens, UniProt Q9NYV7); experiment: Ca2+ flux assay, HEK-293T cells expressing wild-type TAS2R16 and Gα16gust44; format: cell-based
T1 construct: FLAG (N); expressed in transfected cells; host or cells: HEK-293T
T1 sequence (Q9NYV7 1-291): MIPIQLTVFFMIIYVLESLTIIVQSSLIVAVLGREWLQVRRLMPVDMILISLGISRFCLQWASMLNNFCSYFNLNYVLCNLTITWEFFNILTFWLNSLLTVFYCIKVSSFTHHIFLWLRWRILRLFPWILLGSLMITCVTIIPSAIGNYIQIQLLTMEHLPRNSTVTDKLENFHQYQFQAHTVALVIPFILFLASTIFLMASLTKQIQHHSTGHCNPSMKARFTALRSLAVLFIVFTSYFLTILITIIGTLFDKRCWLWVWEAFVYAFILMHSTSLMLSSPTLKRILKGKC
Experimental: (§1) The TAS2R16 mutation library was tested for function using a Ca^2+ flux assay as described previously. Later screens of individual TAS2R16 mutant clones used 4-nitrophenyl-β-D-glucopyranoside. Briefly, HEK-293T cells, in poly-lysine coated, black 384-well plates with clear bottoms (Costar), were transfected with the TAS2R16 mutation library, and a plasmid expressing a Gα16 chimera containing the last 44 amino acids of rat gustducin (Gα16gust44). Cells were incubated for 22 hours at 37 °C then washed twice with a calcium indicator dye in HBSS containing 20 mM HEPES (Calcium 4 Assay kit, Molecular Devices), incubated with HBSS for 1.5 hr, then moved to a Flexstation II-384 (Molecular Devices) set at 32 °C. […] Concentrations for mutation library screening were chosen to be approximately 2 to 3 times higher than the EC50 values for the ligands to maximize the sensitivity of detecting decreases in signaling due to the mutation in each clone.
(§2) For Ca^2+ flux assays, the value of fluorescence at 30 seconds after ligand addition (the time of peak signal for wild-type TAS2R16) was used as the maximum value. […] Raw data obtained from surface expression and flux experiments were normalized to the values for wild-type TAS2R16 on each plate. Data sets were analyzed and represented as percentage over baseline signal. Mean and standard deviation values were calculated for each clone from replicate assay data.
(§3) Ligand dose-response data was analyzed with Graphpad Prism 5 software. Data was baseline subtracted and then fit using a sigmoidal dose-response (variable slope) equation.

[2] = target: T2, Q60R TAS2R16 (Homo sapiens, UniProt Q9NYV7, Q60R); experiment: Ca2+ flux assay, mutation library clone Q60R; format: cell-based; conditions: 3 mM salicin, mean (range, max-min), n=3
T2 construct: V5; expressed in transfected cells; host or cells: HEK-293T
Experimental: as §1
(§4) For Ca^2+ flux assays, the value of fluorescence at 30 seconds after ligand addition (the time of peak signal for wild-type TAS2R16) was used as the maximum value. […] Data sets were analyzed and represented as percentage over baseline signal. Mean and standard deviation values were calculated for each clone from replicate assay data.

[3] = target: T3, Y14H TAS2R16 (Homo sapiens, UniProt Q9NYV7, Y14H); experiment: Ca2+ flux assay, mutation library clone Y14H; format: cell-based; conditions: 3 mM salicin, mean (range, max-min), n=3
T3 construct: FLAG (N); expressed in transfected cells; host or cells: HEK-293T
Experimental: as §1, §4

[4] = target: T4, C58R TAS2R16 (Homo sapiens, UniProt Q9NYV7, C58R); experiment: Ca2+ flux assay, mutation library clone C58R; format: cell-based; conditions: 3 mM salicin, mean (range, max-min), n=3
T4 construct: V5; expressed in transfected cells; host or cells: HEK-293T
Experimental: as §1, §4

[5] = target: T5, L276R TAS2R16 (Homo sapiens, UniProt Q9NYV7, L276R); experiment: Ca2+ flux assay, mutation library clone L276R; format: cell-based; conditions: 3 mM salicin, mean (range, max-min), n=3
T5 construct: V5; expressed in transfected cells; host or cells: HEK-293T
Experimental: as §1, §4

[6] = target: T6, S228T TAS2R16 (Homo sapiens, UniProt Q9NYV7, S228T); experiment: Ca2+ flux assay, mutation library clone S228T; format: cell-based; conditions: library screening concentrations
T6 construct: FLAG (N); expressed in transfected cells; host or cells: HEK-293T
T6 sequence (Q9NYV7 1-291 S228T): T1 sequence (Q9NYV7 1-291) with S228T
Experimental: as §1, §2

[7] = test system: TAS2R16; conditions: read-out: EC50, reported value; cited from earlier work
[8] = target: T7, S108T TAS2R16 (Homo sapiens, UniProt Q9NYV7, S108T); experiment: Ca2+ flux assay, mutation library clone S108T; format: cell-based; conditions: library screening concentrations
T7 construct: FLAG (N); expressed in transfected cells; host or cells: HEK-293T
T7 sequence (Q9NYV7 1-291 S108T): T1 sequence (Q9NYV7 1-291) with S108T
Experimental: as §1, §2

[9] = target: T8, I21F TAS2R16 (Homo sapiens, UniProt Q9NYV7, I21F); experiment: Ca2+ flux assay, mutation library clone I21F; format: cell-based; conditions: 3 mM salicin, mean (range, max-min), n=3
T8 construct: FLAG (N); expressed in transfected cells; host or cells: HEK-293T
Experimental: as §1, §4

[10] = target: T9, W261A TAS2R16 (Homo sapiens, UniProt Q9NYV7, W261A); experiment: Ca2+ flux assay, W261A TAS2R16 variant; format: cell-based
T9 construct: FLAG (N); expressed in transfected cells; host or cells: HEK-293T
T9 sequence (Q9NYV7 1-291 W261A): T1 sequence (Q9NYV7 1-291) with W261A
Experimental: as §1, §2, §3

[11] = target: T10, N172K TAS2R16 (Homo sapiens, UniProt Q9NYV7, N172K); experiment: Ca2+ flux assay, mutation library clone N172K; format: cell-based; conditions: 3 mM salicin, mean (range, max-min), n=3
T10 construct: Each construct in the mutation library was tested for full-length TAS2R16 translation; V5; expressed in transfected cells; host or cells: HEK-293T
Experimental: as §1, §4

[12] = target: T11, Q24R TAS2R16 (Homo sapiens, UniProt Q9NYV7, Q24R); experiment: Ca2+ flux assay, mutation library clone Q24R; format: cell-based; conditions: 3 mM salicin, mean (range, max-min), n=3
T11 construct: FLAG (N); expressed in transfected cells; host or cells: HEK-293T
Experimental: as §1, §4

[13] = target: T12, W61R TAS2R16 (Homo sapiens, UniProt Q9NYV7, W61R); experiment: Ca2+ flux assay, mutation library clone W61R; format: cell-based; conditions: 3 mM salicin, mean (range, max-min), n=3
T12 construct: V5; expressed in transfected cells; host or cells: HEK-293T
Experimental: as §1, §4

[14] = target: T13, L59P TAS2R16 (Homo sapiens, UniProt Q9NYV7, L59P); experiment: Ca2+ flux assay, mutation library clone L59P; format: cell-based; conditions: 3 mM salicin, mean (range, max-min), n=3
T13 construct: Each construct in the mutation library was tested for full-length TAS2R16 translation; V5; expressed in transfected cells; host or cells: HEK-293T
Experimental: as §1, §4

T10 sequence (Q9NYV7 whole entry N172K): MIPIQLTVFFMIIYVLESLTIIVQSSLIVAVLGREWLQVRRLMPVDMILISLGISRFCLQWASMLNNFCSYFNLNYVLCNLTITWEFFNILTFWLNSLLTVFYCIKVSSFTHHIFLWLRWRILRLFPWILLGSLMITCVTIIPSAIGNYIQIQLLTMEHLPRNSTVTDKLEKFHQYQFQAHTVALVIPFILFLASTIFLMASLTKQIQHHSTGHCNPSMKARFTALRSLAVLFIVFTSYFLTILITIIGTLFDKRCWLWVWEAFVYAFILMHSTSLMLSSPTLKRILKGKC
T4 sequence (Q9NYV7 whole entry C58R): as the sequence (Q9NYV7 whole entry N172K) above, with C58R, K172N counted along it
T12 sequence (Q9NYV7 whole entry W61R): as the sequence (Q9NYV7 whole entry N172K) above, with W61R, K172N counted along it
T5 sequence (Q9NYV7 whole entry L276R): as the sequence (Q9NYV7 whole entry N172K) above, with K172N, L276R counted along it
T2 sequence (Q9NYV7 whole entry Q60R): as the sequence (Q9NYV7 whole entry N172K) above, with Q60R, K172N counted along it
T13 sequence (Q9NYV7 whole entry L59P): as the sequence (Q9NYV7 whole entry N172K) above, with L59P, K172N counted along it
T3 sequence (Q9NYV7 whole entry Y14H): as the sequence (Q9NYV7 whole entry N172K) above, with Y14H, K172N counted along it
T8 sequence (Q9NYV7 whole entry I21F): as the sequence (Q9NYV7 whole entry N172K) above, with I21F, K172N counted along it
T11 sequence (Q9NYV7 whole entry Q24R): as the sequence (Q9NYV7 whole entry N172K) above, with Q24R, K172N counted along it

OCc1ccccc1O[C@@H]1O[C@H](CO)[C@@H](O)[C@H](O)[C@H]1O [salicin]
EC50 ([1]; Fig. 5b dose-response, wild-type TAS2R16, read-out: EC50 (WT)): 1100 µM
EC50 ([1]; Fig. 6 comparative dose-response, wild-type TAS2R16, read-out: EC50 (WT)): 1700 µM
EC50 ([1]; Fig. 7 dose-response, wild-type TAS2R16, read-out: EC50 (WT)): 5500 µM
EC50 ([1]; Fig. 2d dose-response, wild-type TAS2R16, HEK-293T, read-out: EC50): 1200 µM
activation of wild-type TAS2R16 ([1]; wild-type TAS2R16, HEK-293T): robust receptor activation
Ca2+ flux in response to salicin [2]: 4 (7) % of wild-type
Ca2+ flux in response to salicin [3]: 9 (9) % of wild-type
Ca2+ flux in response to salicin [4]: 5 (2) % of wild-type
Ca2+ flux in response to salicin [5]: 17 (7) % of wild-type
Ca2+ flux signaling value [6]: 90 % of wild-type
EC50 [7]: 3000 µM
Ca2+ flux signaling value [8]: 99 % of wild-type
Ca2+ flux in response to salicin [9]: 9 (5) % of wild-type
EC50 ([10]; Fig. 5b dose-response, W261A TAS2R16): ~13400 µM
activation of W261A variant ([10]; W261A TAS2R16, relative to wild-type): eliminated activation
Ca2+ flux in response to salicin [11]: 83 (13) % of wild-type and 83 % of wild-type
Ca2+ flux in response to salicin [12]: 9 (9) % of wild-type
Ca2+ flux in response to salicin [13]: 15 (7) % of wild-type
Ca2+ flux in response to salicin [14]: 2 (3) % of wild-type
